# “Also recorded” adds a separate entry of the source.
# Experiments:
# [1] = In vitro re-mineralization of tea-stained human tooth using the peptide solution, optical images and line profile analysis
# Protocol: A caries-free human tooth was sterilized in 1% bleach solution for 24 hours then removed and vigorously rinsed with deionized water. The root site was removed and the crown sectioned vertically using a diamond blade. Pictures were taken with a camera attached to an optical microscope.
# The exposed dentine sites were etched with 35% phosphoric acid (Ultraetch™) for 60 seconds (to facilitate the stain intake). The etching gel was removed by rinsing the sample with distilled water for 3 minutes. The staining solution was prepared by boiling 2 g of tea in 100 ml of deionized water for 5 minutes, which was then cooled down to room temperature and filtered. The tooth was soaked in the staining solution and incubated at 37° C. at 150 rpm for 24 hours. The tooth was then removed from the staining solution and sonicated for 30 seconds in deionized water (sonic bath) to remove the excess amount of tea particles attached to tooth extrinsically. The sectioned tooth was cut vertically in half again to form two quarter sections of the tooth. FIGS. 2(a) to 2(g) show various sections of the tooth after the staining. […] Figures (b), (c) and (d) show different views of the left quarter of the tooth that was sectioned from the tooth. […]
# [2] = Solution mineralization approach on tetracycline-stained teeth, Mean Pixel Intensity; set-up: species or system human; settings: repeated rounds of remineralization
# Excerpt: Human teeth, donated by the University of Washington School of Dentistry (Seattle, Wash., USA), were selected for their clean, smooth surfaces. The teeth were sterilized in bleach, cut on a diamond blade to remove the root, and halved. A thin layer of the enamel surface was then cut on one of the halves parallel to the previous cut, such that the dentin layer could be seen without completely removing the enamel on the tooth. This allowed imaging of the enamel surfaces after the mineralization experiment without the problem of surface reflection encountered in previous experiments, in addition to a more parallel surface from which to compare the brightness or whiteness results. The cut enamel side of the tooth sample was then sonicated in DI water and polished on diamond slurry smooth out the surface for imaging. The sample was then cut into quarters, with the lower half selected for a tetracycline experiment because of the even distribution of dentin coloring in the lower quarters of the tooth sample. The samples were then stained in 10 mg/mL tetracycline solution for five days.
# During mineralization, using a 96-well plate, one of the stained halves was stored in […] Tris (24 mM) as a negative control, and the experimental sample was incubated in 150 μL shADP5 (0.8 mM) at 37° C. for 10 minutes. […]
# [3] = Structural characterization of remineralized layer by TEM; set-up: species or system human; settings: TEM of fragments shaved off the surface; listed as group 6
# Protocol: After remineralization steps were completed, TEM samples were collected by carefully shaving off the top most surface of the remineralized layer from the artificially created white spot lesion using a clean razor blade. The shaved particles were suspended in 100% ethanol, and the suspension was drop-casted onto a carbon coated TEM grid, which was then vacuum dried before TEM characterization. TEM bright field imaging (BF) imaging and selected areas diffraction were carried out using an FEI Tecnai (FEI, Hillboro, Oreg., USA) operating at 200 keV.
# Structural and phase characterization of the samples from all groups were undertaken by transmission electron microscopy imaging and diffraction analysis. This is because x-ray diffraction characterization requires large enough volume with 10s of lam mass thickness and larger spatial sampling, 100s of μms or larger areas. Since the mineralized layer is thin, a few μms in all other group samples to 10 μm or so in group 6 samples using the peptide, TEM has been used to provide the most critical data, diffraction and phase identification. The TEM samples were prepared by gently shaving fragments off the surface of tooth specimens onto carbon-coated TEM grid to prepare and ensure electron transparent sections. All of the TEM data is included in FIG. 13 below for completeness (while only 1st, 4th and 6th columns of data were presented in FIG. 11).
sequence,measurement,setting,value
"SYENSHSQAINVDRT [shADP5, 15-amino acid long amelogenin-derived peptide, shortened human ADP5]",Mean Pixel Intensity (MPI) compared with original and stained tooth,"[1]; ImageJ line profile, after staining and remineralization",higher MPI than the original tooth and the tooth after staining
same,tooth color compared with control,"[1]; tea-stained human tooth quarter, peptide 10 min 37° C., then CaCl2/KH2PO4 16 hours",lighter in color than the left quarter (control)
same,whiteness of the stained tooth,[2],improves with repeated rounds of remineralization
same,structure of mineral found by TEM imaging and diffraction,[3],large particles (in the shown projection) of HAp; also recorded: HAp crystallites with aligned organization
